Test results published in publication PMC7518156 (PeerJ, 2020).
“Also recorded” adds a separate entry of the source. Like-named read-outs stand apart in the source and are kept apart here.

Experiment: Pharmacokinetics of ERL and GEF in Wistar rats after four weeks consumption of water or flavoured water (plasma, UPLC-MS/MS, non-compartmental analysis)
Assay type: in vivo
Settings: for Tmax: read-out: tmax; for AUC(0-t): read-out: AUC0-48; for half-life: read-out: t½ (converted)
Protocol: Fifty healthy male Wistar rats weighing 250 ± 30 g were obtained from the animal house, College of Pharmacy, King Saud University, Riyadh, Saudi Arabia. Rats were randomly divided into ten cages (n = 5). All individualized ventilated cages (IVC) type IV used in this study were of 20″L × 11″W × 9″ in dimension capable of hosting 4–5 rats. Cages density, bedding, and sanitation frequency was similar in all cages. Cages were housed at room temperature (25 °C) and at an average relative humidity of 50%. Daily observation of all rats was required to ensure that all animals maintained good health. All animal experiments strictly followed the guidelines of the Ethical Committee for Performing Studies on Animals, King Saud University, Riyadh, Saudi Arabia, protocol number KSU-SE-19-13.
Four types of FW, (Aquafina®, a product of Pepsi-Cola®, Saudi Industrial Projects Company, Jeddah, Saudi Arabia) with different flavours, specifically berry (group II), peach (group III), lime (group IV), and pineapple FW (group V) were used. Other components found in FW used in this study include water, preservatives (sodium phosphate, potassium sorbet, sodium benzoate), acidifiers (citric acid, maleic acid), sweeteners (aspartame, potassium acesulfame, allose), acidity regulator (sodium citrate), and antioxidant agent (calcium disodium EDTA). […] The parallel design was used in this study to avoid animals’ physiological changes that could occur in the cross-over design, possibly affecting PK profiles of drug substances. All animals involved in the study were deprived from food, but not water/FW, for at least 12 h before drug administration. […] Drugs were administered to the rats between 7:00 am and 8:00 am. Rats were separately weighed from day one of water/FW consumption prior to drug administration for accurate dose calculation (Fig. S1). Blood samples (0.3 mL) were collected from each rat immediately prior to dosing (0 time) and at predetermined time points (0.5, 1, 2, 3, 5, 24, and 48 h) post drug administration. Blood samples were withdrawn and processed as described previously ([Maher et al., 2017]; [Maher, Alzoman & Shehata, 2016]; [Maher, Alzoman & Shehata, 2018]). Specifically, blood samples were withdrawn from the retro-orbital sinus into a series of heparinized tubes. Plasma was separated from collected blood samples by centrifugation at 4,500 rpm for 30 min where the centrifuge was maintained at 4 °C, and then stored at −20 °C until the day of analysis. […] A mixture of acetonitrile: water (80: 20, v/v), with 0.1% formic acid was used as a mobile phase at a flow rate of 0.2 mL/min ([Maher, Alzoman & Shehata, 2016]).
Cmax and tmax were obtained from the corresponding plasma concentration–time curve (Figs. 1A and 1B). […] The area under the plasma concentration–time curve from time 0 to the last sampling time t, 48 h (AUC0–t) was calculated using the trapezoidal rule. […] AUC0–∞ was also derived by summing up AUC0–t andthe area obtained by extrapolation from time t to ∞. The latter area was calculated from the division of the last measured concentration (Clast) by λz.
Results were presented as mean ± SD. PK parameters of all treated groups following the consumption of FW were compared with control (rats having free access to water), using one-way ANOVA and Bonferroni’s multiple comparisons test. Statistical significance was obtained with p-values ≤ 0.05.

[1] = male, Wistar, rat, plasma, po, 20 mg/kg, rats, 20 mg/kg oral, +Pineapple FW, average, read-out: Conc*10 (ng/mL plasma)
[2] = male, Wistar, rat, plasma, po, 20 mg/kg, rats, 20 mg/kg oral, drug alone (water), average, read-out: Conc*10 (ng/mL plasma)
[3] = male, Wistar, rat, plasma, po, 20 mg/kg, rats, 20 mg/kg oral, four weeks berry FW, n = 5, mean (SD)
[4] = male, Wistar, rat, plasma, po, 20 mg/kg, rats, 20 mg/kg oral, four weeks peach FW, n = 5, mean (SD)
[5] = male, Wistar, rat, plasma, po, 20 mg/kg, rats, 20 mg/kg oral, four weeks pineapple FW, n = 5, mean (SD)
[6] = male, Wistar, rat, plasma, po, 20 mg/kg, rats, 20 mg/kg oral, water (control), n = 5, mean (SD)
[7] = male, Wistar, rat, plasma, po, 20 mg/kg, raw data sheet, from average profile, +Berry FW
[8] = male, Wistar, rat, plasma, po, 20 mg/kg, raw data sheet, from average profile, +Lime FW
[9] = male, Wistar, rat, plasma, po, 20 mg/kg, raw data sheet, from average profile, +Peach FW
[10] = male, Wistar, rat, plasma, po, 20 mg/kg, raw data sheet, from average profile, +Pineapple FW
[11] = male, Wistar, rat, plasma, po, 20 mg/kg, raw data sheet, from average profile, drug alone (water)
[12] = rats, berry FW relative to control (water)
[13] = rats, lime FW relative to control (water)
[14] = rats, peach FW relative to control (water)
[15] = rats, pineapple FW relative to control (water)
[16] = raw data sheet, +Berry FW vs drug alone
[17] = raw data sheet, +Lime FW vs drug alone
[18] = raw data sheet, +Peach FW vs drug alone
[19] = raw data sheet, +Pineapple FW vs drug alone

SMILES: C#Cc1cccc(Nc2ncnc3cc(OCCOC)c(OCCOC)cc23)c1 [ERL, Erlotinib]
- concentration at 5 h [1]: 20.9 ng/mL
- concentration at 24 h [1]: 15.8 ng/mL
- concentration at 48 h [1]: 14 ng/mL
- concentration at 0 h (male, Wistar, rat, plasma, po, 20 mg/kg, rats, 20 mg/kg oral, drug alone (water), average, time 0 h, read-out: Conc*10 (ng/mL plasma)): 9.48 ng/mL
- concentration at 0.5 h (male, Wistar, rat, plasma, po, 20 mg/kg, rats, 20 mg/kg oral, drug alone (water), average, time 0.5 h, read-out: Conc*10 (ng/mL plasma)): 44.5 ng/mL
- concentration at 1 h (male, Wistar, rat, plasma, po, 20 mg/kg, rats, 20 mg/kg oral, drug alone (water), average, time 1 h, read-out: Conc*10 (ng/mL plasma)): 105 ng/mL
- concentration at 2 h (male, Wistar, rat, plasma, po, 20 mg/kg, rats, 20 mg/kg oral, drug alone (water), average, time 2 h, read-out: Conc*10 (ng/mL plasma)): 48.2 ng/mL
- concentration at 3 h (male, Wistar, rat, plasma, po, 20 mg/kg, rats, 20 mg/kg oral, drug alone (water), average, time 3 h, read-out: Conc*10 (ng/mL plasma)): 29.7 ng/mL
- concentration at 5 h [2]: 23.2 ng/mL
- concentration at 24 h [2]: 12.3 ng/mL
- concentration at 48 h [2]: 9.77 ng/mL
- AUC(0-inf) [3]: 1380 ng·h/mL
- CL/F [3]: 241 mL/min/kg
- Cmax [3]: 111 ng/mL
- Tmax (male, Wistar, rat, plasma, po, 20 mg/kg, rats, 20 mg/kg oral, four weeks lime FW, n = 5, mean (SD)): 0.51 h
- AUC(0-inf) [4]: 1530 ng·h/mL
- CL/F [4]: 219 mL/min/kg
- AUC(0-t) [4]: 827 ng·h/mL
- Cmax [5]: 120 ng/mL
- AUC(0-t) [5]: 942 ng·h/mL
- AUC(0-inf) [6]: 1320 ng·h/mL
- CL/F [6]: 253 mL/min/kg
- Cmax [6]: 106 ng/mL
- AUC(0-t) [6]: 827 ng·h/mL
- Tmax [6]: 1.02 h
- half-life [6]: 35.1 h
- AUC [7]: 1330 ng·h/mL
- Cmax [7]: 110 ng/mL
- Tmax [7]: 3 h
- half-life [7]: 13.3 h
- AUC [8]: 3340 ng·h/mL
- Cmax [8]: 164 ng/mL
- Tmax [8]: 0.5 h
- half-life [8]: 43.6 h
- AUC [9]: 1210 ng·h/mL
- Cmax [9]: 111 ng/mL
- Tmax [9]: 2 h
- half-life [9]: 27 h
- AUC [10]: 1670 ng·h/mL
- Cmax [10]: 120 ng/mL
- Tmax [10]: 2 h
- half-life [10]: 35.6 h
- AUC [11]: 1240 ng·h/mL
- Cmax [11]: 105 ng/mL
- Tmax [11]: 1 h
- half-life [11]: 29.4 h
- decrease in t1/2 [12]: ~49%
- effect on exposure (AUC0–48) [12]: significantly affected
- increase in AUC0–48 [12]: 42.35%
- increase in tmax [12]: three times increase
- decrease in apparent oral clearance (CL/F) [13]: 65%
- decrease in tmax [13]: not statistically significant
- increase in AUC0–∞ [13]: 200%
- increase in Cmax [13]: 95%
- increase in t1/2 [13]: ~65%
- effect on Cmax, AUC0–48, AUC0–∞, and CL/F [14]: no significant effect
- effect on PK parameters (overall) [14]: minimum effect; also recorded: least effect; also recorded: nearly negligible effect
- increase in t1/2 [14]: about 41%
- increase in tmax [14]: two times increase
- increase in AUC0–∞ [15]: 86%
- increase in t1/2 [15]: ~113.8%
- increase in tmax [15]: two times increase
- % change FOR AREA [16]: 7% FOR AREA
- % change FOR C MAX [16]: 5% FOR C MAX
- % change FOR AREA [17]: 170% FOR AREA
- % change FOR C MAX [17]: 56% FOR C MAX
- % change FOR AREA [18]: -2% FOR AREA
- % change FOR C MAX [18]: 6% FOR C MAX
- % change FOR AREA [19]: 35% FOR AREA
- % change FOR C MAX [19]: 13% FOR C MAX
